Patent publication US20070032488A1, “6-Membered aryl and heteroaryl derivatives for treating viruses” (Genelabs Technologies, Inc., priority 2005, published 2007)

Test system: HCV replicon in ET (Huh-lucubineo-ET) cell line (screening for HCV RNA dependent RNA polymerase)
Test: Replicon Assay (luciferase reporter, ET cell line)
Format: cell-based
Settings: Hepatitis C virus; tested at 12.5 μM; luciferase activity in ET replicon cells, relative to no compound control; read-out: % inhibition (of replication)
Experimental: A cell line, ET (Huh-lucubineo-ET) was used for screening of compounds of the present invention for HCV RNA dependent RNA polymerase. The ET cell line was stably transfected with RNA transcripts harboring a I389luc-ubi-neo/NS3-3′/ET; replicon with firefly luciferase-ubiquitin-neomycin phosphotransferase fusion protein and EMCV-IRES driven NS3-5B polyprotein containing the cell culture adaptive mutations (E1202G; T1280I; K1846T) (Krieger at al, 2001 and unpublished). The ET cells were grown in DMEM, supplemented with 10% fetal calf serum, 2 mM Glutamine, Penicillin (100 IU/mL)/Streptomycin (100 μg/mL), 1× nonessential amino acids, and 250 μg/mL G418 (“Geneticin”). They were all available through Life Technologies (Bethesda, Md.). The cells were plated at 0.5-1.0×10^4 cells/well in the 96 well plates and incubated for 24 hrs before adding nucleoside analogs. […] Luciferase activity was measured 48-72 hours later by adding a lysis buffer and the substrate (Catalog number Glo-lysis buffer E2661 and Bright-Glo leuciferase system E2620 Promega, Madison, Wis.). Cells should not be too confluent during the assay. Percent inhibition of replication was plotted relative to no compound control. Under the same condition, cytotoxicity of the compounds was determined using cell proliferation reagent, WST-1 (Roche, Germany). The compounds showing potent antiviral activities, but no significant cytotoxicities were chosen for further evaluation. For these determinations, a 10-point, 2-fold serial dilution for each compound was used which spans a concentration range of 1000 fold. IC50 and TC50 values were calculated by fitting % inhibition at each concentration to the following equation: % inhibition=100%/[(IC50/[I])b+1] where b is Hill's coefficient.
The % inhibition at a particular concentration was determined using the following equation: % Inhibition=100−[100*(Lum with inhibitor-bg)/(Lum with no inhibitor-bg)]
where bg was the background with no replicon cell, and Lum was the luminescence intensity of the reporter luciferase gene.

Structure (SMILES) | inhibition at 12.5 µM [%]
Cc1nc(C)c(-c2ccc3cc(-c4c(CC(=O)N5CCOCC5)cc(-c5nnn[nH]5)cc4C4CCCCC4)ccc3n2)s1 [Compound 11, 2-[3-cyclohexyl-2-[2-(2,4-dimethyl-thiazol-5-yl)-quinolin-6-yl]-5-(1H-tetrazol-5-yl)-phenyl]-1-morpholin-4-yl-ethanone] | 27
Cc1nc(C)c(-c2ccc3cc(-c4c(CC(=O)N5CCOCC5)cc(C(=O)O)cc4C4CCCCC4)ccc3n2)s1 [Compound 9, 3-cyclohexyl-4-[2-(2,4-dimethyl-thiazol-5-yl)-quinolin-6-yl]-5-(2-morpholin-4-yl-2-oxo-ethyl)-benzoic acid] | 6.4
Cc1nc(C)c(-c2ccc3cc(-c4c(N)cc(C(=O)O)cc4C4CCCCC4)ccc3n2)s1 [Compound 8, 3-amino-5-cyclohexyl-4-[2-(2,4-dimethyl-thiazol-5-yl)-quinolin-6-yl]-benzoic acid] | 54
Cc1nc(C)c(-c2ccc3cc(-c4c(/C=C/C(=O)N5CCCCC5)cc(C(=O)O)cc4C4CCCCC4)ccc3n2)s1 [Compound 2.9b, 3-cyclohexyl-4-(2-(2,4-dimethylthiazol-5-yl)quinolin-6-yl)-5-((E)-3-oxo-3-(piperidin-1-yl)prop-1-enyl)benzoic acid] | 80
C#Cc1cc(C(=O)O)cc(C2CCCCC2)c1-c1ccc2nc(-c3sc(C)nc3C)ccc2c1 [Compound 4.4b, 3-cyclohexyl-5-ethynyl-4-(2-(2,4-dimethylthiazol-5-yl)quinolin-6-yl)benzoic acid] | 87
Cc1nc(C)c(-c2ccc3cc(-c4c(CC(=O)N5CCOCC5)cc(C(=O)NC5(C(=O)O)CCCC5)cc4C4CCCCC4)ccc3n2)s1 [Compound 10, 1-[3-cyclohexyl-4-[2-(2,4-dimethyl-thiazol-5-yl)-quinolin-6-yl]-5-(2-morpholin-4-yl-2-oxo-ethyl)-benzoylamino]-cyclopentanecarboxylic acid] | 51
Cc1nc(C)c(-c2ccc3cc(-c4c(C5CCCCC5)cc(C(=O)O)cc4[N+](=O)[O-])ccc3n2)s1 [Compound 7, 3-cyclohexyl-4-[2-(2,4-dimethyl-thiazol-5-yl)-quinolin-6-yl]-5-nitro-benzoic acid] | 30
COCCOc1ccc(-c2ccc(Cl)cc2)c(-c2ccc3cc(-c4ccc(C(=O)O)cc4C4CCCCC4)ccc3n2)c1 [Compound 1.8b, 3-cyclohexyl-4-(2-(3-(2-methoxyethoxy)-6-(4′-chlorophenyl)phenyl)quinolin-6-yl)benzoic acid] | 94
COc1ccc(-c2ccc(Cl)cc2)c(-c2ccc3cc(-c4ccc(C(=O)O)cc4C4CCCCC4)ccc3n2)c1 [Compound 1.8a, 3-cyclohexyl-4-(2-(3-methoxy-6-(4′-chlorophenyl)phenyl)quinolin-6-yl)benzoic acid] | 89
Cc1nc(C)c(-c2ccc3cc(-c4c(/C=C/C(=O)N5CCOCC5)cc(C(=O)O)cc4C4CCCCC4)ccc3n2)s1 [Compound 2.9a, 3-cyclohexyl-4-(2-(2,4-dimethylthiazol-5-yl)quinolin-6-yl)-5-((E)-3-morpholino-3-oxoprop-1-enyl)benzoic acid] | 65
